The numbers were not newly measured in PMC4198332 (Chembiochem : a European journal of chemical biology, 2014), which cites them from elsewhere.

Series [1] concerns Methicillin-resistant S. aureus (MRSA) (ATCC 33591). The note with it: included for comparison.
In series [2] the test system is Methicillin-resistant S. epidermidis (MRSE) (RP62A). The note with it: included for comparison.
For series [3], the system named is Vancomycin-resistant E. faecalis (ATCC 700802). The note with it: included for comparison.
Series [4] has as its system P. aeruginosa (ATCC 27853). The note with it: included for comparison.
The subject of the next series is E. coli (ATCC 25922). The note with it: included for comparison.
Series [5] relates to human red blood cells (hRBCs).

Consider Pexiganan, for which, in series [1], the “MIC MRSA (+)” value is 16 µg/mL. The “MIC MRSE (+)” value in series [2] is 8 µg/mL. Besides, the “MIC E. faecalis (+)” value in series [3] was 32 µg/mL. In addition, the “MIC P. Aeruginosa (−)” value in series [4] was 16 µg/mL. In the series on E. coli (ATCC 25922), the “MIC E. coli (−)” value was 8 µg/mL. For the same substance, the “Hemolysis HC50” value in series [5] is recorded as “--/120 μg/mL”.
